Measurements: patent US20250346592A1 (Celgene Corporation, priority 2022, published 2025)
pIC50: −log10 of the molar value.

Molecular target: hPAD4 enzyme (Homo sapiens (Human), UniProt Q9UM07)
Assay: RFMS2 assay (RapidFire mass spectrometry, TSTGGRQGSHH peptide substrate)
Type: biochemical
Conditions: 35 nM recombinant human PAD4, 500 μM TSTGGRQGSHH peptide, 30 minutes at room temperature; read-out: RFMS 2 IC50
Method in brief: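 IC50 derived from RapidFire LC-MS/MS (positive ESI MRM) of substrate versus product after a 30 min room-temperature reaction stopped with 10% formic acid. Reaction contained 35 nM human PAD4, 500 μM peptide, 2 mM CaCl2, 5 mM DTT at pH 7.4, and compounds diluted 3-fold from 20 μM.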

hPAD4 enzyme, sequence (Q9UM07 whole entry): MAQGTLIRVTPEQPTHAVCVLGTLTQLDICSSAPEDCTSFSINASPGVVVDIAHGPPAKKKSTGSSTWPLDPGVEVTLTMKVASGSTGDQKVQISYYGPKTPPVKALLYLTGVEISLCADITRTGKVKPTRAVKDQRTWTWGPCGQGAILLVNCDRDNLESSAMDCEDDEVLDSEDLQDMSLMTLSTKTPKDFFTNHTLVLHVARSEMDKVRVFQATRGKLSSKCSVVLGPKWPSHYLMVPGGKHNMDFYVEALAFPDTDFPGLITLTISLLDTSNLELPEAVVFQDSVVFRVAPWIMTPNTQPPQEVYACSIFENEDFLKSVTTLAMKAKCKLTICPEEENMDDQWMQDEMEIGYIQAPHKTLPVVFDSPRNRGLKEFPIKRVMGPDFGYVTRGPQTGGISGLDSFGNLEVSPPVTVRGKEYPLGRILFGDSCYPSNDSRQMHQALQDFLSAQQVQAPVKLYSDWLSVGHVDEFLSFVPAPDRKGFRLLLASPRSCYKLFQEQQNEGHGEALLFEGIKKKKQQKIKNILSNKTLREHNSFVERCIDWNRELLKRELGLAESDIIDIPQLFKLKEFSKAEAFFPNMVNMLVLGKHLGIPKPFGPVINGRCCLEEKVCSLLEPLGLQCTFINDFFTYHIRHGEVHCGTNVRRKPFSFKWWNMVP

Structure (SMILES)	pIC50
Cc1nncn1CCOc1cccc2cc(-c3nc4cc5c(cc4n3C)CCN(C[C@H](N)CF)C5=O)n(CC3CC3)c12 [Example 182, (S)-6-(2-amino-3-fluoropropyl)-2-(1-(cyclopropylmethyl)-7-(2-(3-methyl-4H-1,2,4-triazol-4-yl)ethoxy)-1H-indol-2-yl)-1-methyl-1,6,7,8-tetrahydro-5H-imidazo[4,5-g]isoquinolin-5-one]	6.30 to 7.00
Cn1c(-c2cc3cccc(OCc4cccnn4)c3n2CC2CC2)nc2cc3c(cc21)CCN(C[C@H](N)CF)C3=O [Example 183, (S)-6-(2-amino-3-fluoropropyl)-2-(1-(cyclopropylmethyl)-7-(pyridazin-3-ylmethoxy)-1H-indol-2-yl)-1-methyl-1,6,7,8-tetrahydro-5H-imidazo[4,5-g]isoquinolin-5-one]	6.30 to 7.00
Cn1c(-c2cc3cccc(OCC4CC(F)(F)C(=O)N4)c3n2CC2CC2)nc2cc3c(cc21)CCN(C[C@H](N)CF)C3=O (stereo partly drawn) [Example 185, 6-((S)-2-amino-3-fluoropropyl)-2-(1-(cyclopropylmethyl)-7-((4,4-difluoro-5-oxopyrrolidin-2-yl)methoxy)-1H-indol-2-yl)-1-methyl-1,6,7,8-tetrahydro-5H-imidazo[4,5-g]isoquinolin-5-one]	6.30 to 7.00
Cn1c(-c2cc3cccc(OC[C@@H]4COCCN4)c3n2CC2CC2)nc2cc3c(cc21)CCN(C[C@H](N)CF)C3=O [Example 187, 6-((S)-2-amino-3-fluoropropyl)-2-(1-(cyclopropylmethyl)-7-(((S)-morpholin-3-yl)methoxy)-1H-indol-2-yl)-1-methyl-1,6,7,8-tetrahydro-5H-imidazo[4,5-g]isoquinolin-5-one]	< 6.00
Cn1c(-c2cc3cccc(OC[C@H]4COCCN4)c3n2CC2CC2)nc2cc3c(cc21)CCN(C[C@H](N)CF)C3=O [Example 188, 6-((S)-2-amino-3-fluoropropyl)-2-(1-(cyclopropylmethyl)-7-(((R)-morpholin-3-yl)methoxy)-1H-indol-2-yl)-1-methyl-1,6,7,8-tetrahydro-5H-imidazo[4,5-g]isoquinolin-5-one]	6.00 to 6.30
Cn1c(-c2cc3cccc(OCc4cocn4)c3n2CC2CC2)nc2cc3c(cc21)CCN(C[C@H](N)CF)C3=O [Example 189, (S)-6-(2-amino-3-fluoropropyl)-2-(1-(cyclopropylmethyl)-7-(oxazol-4-ylmethoxy)-1H-indol-2-yl)-1-methyl-1,6,7,8-tetrahydro-5H-imidazo[4,5-g]isoquinolin-5-one]	6.30 to 7.00
C[C@@H](CCO)Oc1cccc2cc(-c3nc4cc5c(cc4n3C)CCN(C[C@H](N)CF)C5=O)n(CC3CC3)c12 [Example 191, 6-((S)-2-amino-3-fluoropropyl)-2-(1-(cyclopropylmethyl)-7-(((S)-4-hydroxybutan-2-yl)oxy)-1H-indol-2-yl)-1-methyl-1,6,7,8-tetrahydro-5H-imidazo[4,5-g]isoquinolin-5-one]	6.30 to 7.00
C[C@H](CCO)Oc1cccc2cc(-c3nc4cc5c(cc4n3C)CCN(C[C@H](N)CF)C5=O)n(CC3CC3)c12 [Example 192, 6-((S)-2-amino-3-fluoropropyl)-2-(1-(cyclopropylmethyl)-7-(((R)-4-hydroxybutan-2-yl)oxy)-1H-indol-2-yl)-1-methyl-1,6,7,8-tetrahydro-5H-imidazo[4,5-g]isoquinolin-5-one]	6.30 to 7.00
Cn1c(-c2cc3cccc(OCc4cn[nH]c4)c3n2CC2CC2)nc2cc3c(cc21)CCN(C[C@H](N)CF)C3=O [Example 193, (S)-2-(7-((1H-pyrazol-4-yl)methoxy)-1-(cyclopropylmethyl)-1H-indol-2-yl)-6-(2-amino-3-fluoropropyl)-1-methyl-1,6,7,8-tetrahydro-5H-imidazo[4,5-g]isoquinolin-5-one]	7.00 to 7.96
Cn1c(-c2cc3cccc(OCCc4cnco4)c3n2CC2CC2)nc2cc3c(cc21)CCN(C[C@H](N)CF)C3=O [Example 194, (S)-6-(2-amino-3-fluoropropyl)-2-(1-(cyclopropylmethyl)-7-(2-(oxazol-5-yl)ethoxy)-1H-indol-2-yl)-1-methyl-1,6,7,8-tetrahydro-5H-imidazo[4,5-g]isoquinolin-5-one]	7.00 to 7.96
Cn1c(-c2cc3cccc(OCCc4cocn4)c3n2CC2CC2)nc2cc3c(cc21)CCN(C[C@H](N)CF)C3=O [Example 196, (S)-6-(2-amino-3-fluoropropyl)-2-(1-(cyclopropylmethyl)-7-(2-(oxazol-4-yl)ethoxy)-1H-indol-2-yl)-1-methyl-1,6,7,8-tetrahydro-5H-imidazo[4,5-g]isoquinolin-5-one]	6.30 to 7.00
CC(Oc1cccc2cc(-c3nc4cc5c(cc4n3C)CCN(C[C@H](N)CF)C5=O)n(CC3CC3)c12)c1ccno1 (stereo partly drawn) [Example 197, 6-((S)-2-amino-3-fluoropropyl)-2-(1-(cyclopropylmethyl)-7-(1-(isoxazol-5-yl)ethoxy)-1H-indol-2-yl)-1-methyl-1,6,7,8-tetrahydro-5H-imidazo[4,5-g]isoquinolin-5-one]	6.30 to 7.00
COC(=O)NC[C@@H](C)Oc1cccc2cc(-c3nc4cc5c(cc4n3C)CCN(C[C@H](N)CF)C5=O)n(CC3CC3)c12 [Example 200, methyl ((R)-2-((2-(6-((S)-2-amino-3-fluoropropyl)-1-methyl-5-oxo-5,6,7,8-tetrahydro-1H-imidazo[4,5-g]isoquinolin-2-yl)-1-(cyclopropylmethyl)-1H-indol-7-yl)oxy)propyl)carbamate]	6.30 to 7.00
COC(=O)NC[C@H](C)Oc1cccc2cc(-c3nc4cc5c(cc4n3C)CCN(C[C@H](N)CF)C5=O)n(CC3CC3)c12 [Example 202, methyl ((S)-2-((2-(6-((S)-2-amino-3-fluoropropyl)-1-methyl-5-oxo-5,6,7,8-tetrahydro-1H-imidazo[4,5-g]isoquinolin-2-yl)-1-(cyclopropylmethyl)-1H-indol-7-yl)oxy)propyl) carbamate]	6.30 to 7.00
Cn1c(-c2cc3cccc(OCCc4cc[nH]c4)c3n2CC2CC2)nc2cc3c(cc21)CCN(C[C@H](N)CF)C3=O [Example 203]	6.30 to 7.00
COC(=O)N[C@H](C)COc1cccc2cc(-c3nc4cc5c(cc4n3C)CCN(C[C@H](N)CF)C5=O)n(CC3CC3)c12 [Example 209, methyl ((R)-1-((2-(6-((S)-2-amino-3-fluoropropyl)-1-methyl-5-oxo-5,6,7,8-tetrahydro-1H-imidazo[4,5-g]isoquinolin-2-yl)-1-(cyclopropylmethyl)-1H-indol-7-yl)oxy)propan-2-yl) carbamate]	6.00 to 6.30
CNC(=O)OCCOc1cccc2cc(-c3nc4cc5c(cc4n3C)CCN(C[C@H](N)CF)C5=O)n(CC3CC3)c12 [Example 211, (S)-2-((2-(6-(2-amino-3-fluoropropyl)-1-methyl-5-oxo-5,6,7,8-tetrahydro-1H-imidazo[4,5-g]isoquinolin-2-yl)-1-(cyclopropylmethyl)-1H-indol-7-yl)oxy)ethyl methylcarbamate]	6.30 to 7.00
Cn1c(-c2cc3cccc(OCC(C)(C)O)c3n2CC2CC2)nc2cc3c(cc21)CCN(C[C@H](N)CF)C3=O [Example 214, (S)-6-(2-amino-3-fluoropropyl)-2-(1-(cyclopropylmethyl)-7-(2-hydroxy-2-methylpropoxy)-1H-indol-2-yl)-1-methyl-1,6,7,8-tetrahydro-5H-imidazo[4,5-g]isoquinolin-5-one]	6.00 to 6.30
Cn1c(-c2cc3cccc(OC[C@@H](O)C(F)(F)F)c3n2CC2CC2)nc2cc3c(cc21)CCN(C[C@H](N)CF)C3=O [Example 215, 6-((S)-2-amino-3-fluoropropyl)-2-(1-(cyclopropylmethyl)-7-((R)-3,3,3-trifluoro-2-hydroxypropoxy)-1H-indol-2-yl)-1-methyl-1,6,7,8-tetrahydro-5H-imidazo[4,5-g]isoquinolin-5-one]	6.30 to 7.00
Cn1c(-c2cc3cccc(OC[C@H](O)C(F)(F)F)c3n2CC2CC2)nc2cc3c(cc21)CCN(C[C@H](N)CF)C3=O [Example 216, 6-((S)-2-amino-3-fluoropropyl)-2-(1-(cyclopropylmethyl)-7-((S)-3,3,3-trifluoro-2-hydroxypropoxy)-1H-indol-2-yl)-1-methyl-1,6,7,8-tetrahydro-5H-imidazo[4,5-g]isoquinolin-5-one]	6.30 to 7.00
Cn1c(-c2cc3cccc(OCCO)c3n2Cc2ccno2)nc2cc3c(cc21)CCN(C[C@H](N)CF)C3=O [Example 218, (S)-6-(2-amino-3-fluoropropyl)-2-(7-(2-hydroxyethoxy)-1-(isoxazol-5-ylmethyl)-1H-indol-2-yl)-1-methyl-1,6,7,8-tetrahydro-5H-imidazo[4,5-g]isoquinolin-5-one]	6.30 to 7.00
Cn1c(-c2cc3cccc(OCC4CCNC4=O)c3n2CC2CC2)nc2cc3c(cc21)CCN(C[C@H](N)CF)C3=O (stereo partly drawn) [Example 219, 6-((S)-2-amino-3-fluoropropyl)-2-(1-(cyclopropylmethyl)-7-((2-oxopyrrolidin-3-yl)methoxy)-1H-indol-2-yl)-1-methyl-1,6,7,8-tetrahydro-5H-imidazo[4,5-g]isoquinolin-5-one]	6.30 to 7.00
Cn1c(-c2cc3cccc(OCCn4cnc(C#N)n4)c3n2CC2CC2)nc2cc3c(cc21)CCN(C[C@H](N)CF)C3=O [Example 224, (S)-1-(2-((2-(6-(2-amino-3-fluoropropyl)-1-methyl-5-oxo-5,6,7,8-tetrahydro-1H-imidazo[4,5-g]isoquinolin-2-yl)-1-(cyclopropylmethyl)-1H-indol-7-yl)oxy)ethyl)-1H-1,2,4-triazole-3-carbonitrile]	6.30 to 7.00
Cn1c(-c2cc3cccc(OCCn4ncnc4C#N)c3n2CC2CC2)nc2cc3c(cc21)CCN(C[C@H](N)CF)C3=O [Example 225, (S)-1-(2-((2-(6-(2-amino-3-fluoropropyl)-1-methyl-5-oxo-5,6,7,8-tetrahydro-1H-imidazo[4,5-g]isoquinolin-2-yl)-1-(cyclopropylmethyl)-1H-indol-7-yl)oxy)ethyl)-1H-1,2,4-triazole-5-carbonitrile]	< 6.00
